The source of these data is US9637520B2, “Template-fixed peptidomimetics with CXCR7 modulating activity” (POLYPHOR AG, priority 2010, dated 2017).

The experiment deals with T1, CXCR7 (Homo sapiens, UniProt P25106).
T1 construct: host or cells: CHO (PathHunter CHO-CXCR7 β-arrestin cells)
Nature of the experiment: CXCR7 β-arrestin recruitment assay (PathHunter CHO-CXCR7, DiscoverX), agonistic assay. The class given is cell-based. As to conditions: agonistic assay; CHO CXCR7 β-arrestin cells; 90 min at 37° C.; chemiluminescence; read-out: β-Arrestin EC50. The procedure:
Lyophilized peptides were weighed on a Microbalance (Mettler MX5) and dissolved in DMSO to a final concentration of 10 mM unless otherwise stated. Stock solutions were kept at +4° C., and protected from light.
2.2 CXCR7 β-Arrestin Recruitment Assay
The PathHunter CHO-CXCR7 (DiscoverX) assay was performed according to the manufacturer's protocol. In brief, CHO CXCR7 β-arrestin cells were seeded at a density of 5000 cells per well in 40 μl of F12 medium in black 96-half volume well culture plates and incubated overnight at 37° C. in a humidified atmosphere with 5% CO2. The next day, serial dilutions of PEM compounds have been prepared in DMSO and subsequently diluted in HBSS buffer containing 0.1% BSA.
For agonistic assay, 10 μl of compound solution or a solution of stromal cell-derived factor-1 (SDF-1) as positive control was added to the cells with a final DMSO concentration of 1% (v/v). The plate was incubated for 90 min at 37° C. in 5% CO2 incubator with gentle shaking (300 rpm) before addition of 40 μl of detection reagent per well. Reaction was developed for 90 min at room temperature in the dark with shaking, and chemiluminescence was measured with a Topcount (Perkin Elmer) luminescence counter.
Background: Arrestin recruitment assays detect the binding of arrestin to an activated receptor.

Each structure is given as a SMILES string. Starred links: 1 amine or outer side, 2 acyl side, 3 side chain; linkers in the order of their positions; H or OH if unused. Non-standard residues stand in square brackets, D forms with d. Residues, ends and D or L forms follow the SMILES beside them. *: point of attachment. Arg(Nω,Nω'-propylene) = N[C@@H](CCCNC1=NCCCN1)C(=O)O; dPro(cis-4-NH2) = N[C@H]1CN[C@@H](C(=O)O)C1; X4 = Cn1ccnc1CNCCC[C@H](N[*:1])C(=O)[*:2]; dPro(4S-NH2) = N[C@@H]1CN[C@@H](C(=O)O)C1; Pro(cis-4-F) = O=C(O)[C@@H]1C[C@H](F)CN1; 1Nal = N[C@@H](Cc1cccc2ccccc12)C(=O)O; Tiq1c(1S) = O=C(O)[C@H]1NCCc2ccccc21; Tic = O=C(O)[C@@H]1Cc2ccccc2CN1; d3Pal = N[C@H](Cc1cccnc1)C(=O)O; Agp = N=C(N)NC[C@H](N)C(=O)O; 2Pyrimidinyl = c1cnc(*)nc1; dOrn = NCCC[C@@H](N)C(=O)O; dDab = NCC[C@@H](N)C(=O)O; hSer = N[C@@H](CCO)C(=O)O; Orn = NCCC[C@H](N)C(=O)O; Abu = CC[C@H](N)C(=O)O

T1 sequence (P25106 whole entry): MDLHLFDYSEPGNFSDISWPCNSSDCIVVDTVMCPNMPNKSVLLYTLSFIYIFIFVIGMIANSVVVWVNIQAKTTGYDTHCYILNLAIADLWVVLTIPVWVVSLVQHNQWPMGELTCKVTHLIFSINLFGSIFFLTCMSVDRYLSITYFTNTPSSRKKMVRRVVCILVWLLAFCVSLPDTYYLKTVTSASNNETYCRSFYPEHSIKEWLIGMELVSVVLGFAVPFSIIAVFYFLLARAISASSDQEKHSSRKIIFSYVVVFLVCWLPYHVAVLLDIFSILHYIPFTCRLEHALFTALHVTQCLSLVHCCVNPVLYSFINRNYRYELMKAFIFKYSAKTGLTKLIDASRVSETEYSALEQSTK

Broadly, the EC50 is the concentration needed to bring the measured effect to its halfway point. For the compound `N[C@@H]1C[C@@H]2C(=O)N3CCc4ccccc4[C@H]3C(=O)N[C@@H](Cc3c[nH]c4ccccc34)C(=O)N[C@H](Cc3ccccc3)C(=O)N[C@@H](Cc3c[nH]c4ccccc34)C(=O)N[C@@H](CCCNC3=NCCCN3)C(=O)N2C1` [compound 79, cyclo(-Trp-^DPhe-Trp-Orn(A56)-^DPro((4R)NH2)-Tiq-)] (cyclo(W[dF]W[Arg(Nω,Nω'-propylene)][dPro(cis-4-NH2)][Tiq1c(1S)])), the EC50 was found to be 46.9 ± 12.5 nM. With `CC[C@H](C)[C@@H]1NC(=O)[C@H]([C@@H](C)O)NC(=O)[C@H]2CCCN2C(=O)[C@H](Cc2c[nH]c3ccccc23)NC(=O)[C@H](CCCCN)NC(=O)[C@@H](CCCNC(=N)N)NC1=O` [compound 3, cyclo(-Ile-^DArg-Lys-Trp-^DPro-Thr-)] (cyclo(I[dR]KW[dP]T)) the figure was 78.7 ± 115 nM. The value for `C[C@@H](O)[C@@H]1NC(=O)[C@H]2CCCN2C(=O)[C@H](Cc2c[nH]c3ccccc23)NC(=O)[C@H](CCCNC(=N)N)NC(=O)[C@@H](CCCNC(=N)N)NC(=O)[C@H](Cc2cccc3ccccc23)NC1=O` [Ex. 10, cyclo(-1Nal-^DArg-Arg-Trp-^DPro-Thr-)] (cyclo([1Nal][dR]RW[dP]T)) was 28.5 ± 12.6 nM; that for `CC[C@H](C)[C@@H]1NC(=O)[C@H]([C@@H](C)O)NC(=O)[C@H]2CCCN2C(=O)[C@H](Cc2c[nH]c3ccccc23)NC(=O)[C@H](CCCNC(=N)N)NC(=O)[C@@H](Cc2c[nH]cn2)NC1=O` [compound 12, cyclo(-Ile-^DHis-Arg-Trp-^DPro-Thr-)] (cyclo(I[dH]RW[dP]T)) was 546 ± 241 nM; that for `N=C(N)NCCC[C@@H]1NC(=O)[C@H](Cc2c[nH]c3ccccc23)NC(=O)[C@@H](Cc2cccnc2)NC(=O)[C@H](Cc2c[nH]c3ccccc23)NC(=O)[C@@H]2Cc3ccccc3CN2C(=O)[C@H]2C[C@@H](N)CN2C1=O` [compound 38, cyclo(-Trp-^D3Pal-Trp-Arg-^DPro((4R)NH2)-Tic-)] (cyclo(R[dPro(cis-4-NH2)][Tic]W[d3Pal]W)) was 6.1 ± 1.5 nM. With `CC[C@H](C)[C@@H]1NC(=O)[C@H]([C@@H](C)O)NC(=O)[C@H]2CCCN2C(=O)[C@H](Cc2c[nH]c3ccccc23)NC(=O)[C@H](CCCNC(=N)N)NC(=O)[C@@H](CCCN)NC1=O` [compound 63, cyclo(-Ile-^DOrn-Arg-Trp-^DPro-Thr-)] (cyclo(I[dOrn]RW[dP]T)) the figure was 23.3 ± 7.3 nM.

Take `N=C(N)NCCC[C@@H]1NC(=O)[C@H](Cc2c[nH]c3ccccc23)NC(=O)[C@@H](Cc2ccccc2)NC(=O)[C@H](CCCNc2ncccn2)NC(=O)[C@@H]2Cc3ccccc3CN2C(=O)[C@H]2C[C@@H](N)CN2C1=O` [Ex. 76, cyclo(-Orn(Ar2)-^DPhe-Trp-Arg-^DPro((4R)NH2)-Tic-)] (cyclo([Orn](2Pyrimidinyl)[dF]WR[dPro(cis-4-NH2)][Tic])): the EC50 came out at 209 ± 6.6 nM. Regarding `CC[C@@H]1NC(=O)[C@H]([C@@H](C)O)NC(=O)[C@H]2CCCN2C(=O)[C@H](Cc2c[nH]c3ccccc23)NC(=O)[C@H](CCCNC(=N)N)NC(=O)[C@@H](CCCNC(=N)N)NC1=O` [compound 58, cyclo(-Abu-^DArg-Arg-Trp-^DPro-Thr-)] (cyclo([Abu][dR]RW[dP]T)), the EC50 stood at 330 ± 93.2 nM. With `CC[C@H](C)[C@@H]1NC(=O)[C@H]([C@@H](C)O)NC(=O)[C@H]2CCCN2C(=O)[C@H](Cc2c[nH]c3ccccc23)NC(=O)[C@H](CCCNCc2nccn2C)NC(=O)[C@@H](CCCNC(=N)N)NC1=O` [Ex. 69, cyclo(-Ile-^DArg-Orn(Ar7)-Trp-^DPro-Thr-)] (cyclo(I[dR][X4]W[dP]T)) the figure was 337 ± 92.6 nM; with `N=C(N)NCCC[C@@H]1NC(=O)[C@H](Cc2c[nH]c3ccccc23)NC(=O)[C@@H](Cc2ccccc2)NC(=O)[C@H](Cc2c[nH]c3ccccc23)NC(=O)[C@@H]2C[C@H](F)CN2C(=O)[C@H]2CCCN2C1=O` [Ex. 43, cyclo(-Trp-^DPhe-Trp-Arg-^DPro-Pro((4S)F)—)] (cyclo([Pro(cis-4-F)]W[dF]WR[dP])), 119 ± 42.3 nM; with `CC[C@H](C)[C@@H]1NC(=O)[C@H](CCO)NC(=O)[C@H]2CCCN2C(=O)[C@H](Cc2c[nH]c3ccccc23)NC(=O)[C@H](CCCNC(=N)N)NC(=O)[C@@H](CCCNC(=N)N)NC1=O` [Ex. 8, cyclo(-Ile-^DArg-Arg-Trp-^DPro-hSer-)] (cyclo(I[dR]RW[dP][hSer])), 347 ± 10.3 nM. The value for `CC[C@H](C)[C@@H]1NC(=O)[C@H]([C@@H](C)O)NC(=O)[C@H]2CCCN2C(=O)[C@H](Cc2c[nH]c3ccccc23)NC(=O)[C@H](CCCNC(=N)N)NC(=O)[C@@H](CCN)NC1=O` [Ex. 5, cyclo(-Ile-^DDab-Arg-Trp-^DPro-Thr-)] (cyclo(I[dDab]RW[dP]T)) was 48.4 ± 67.5 nM. `CC[C@H](C)[C@@H]1NC(=O)[C@H]([C@@H](C)O)NC(=O)[C@H]2CCCN2C(=O)[C@H](Cc2c[nH]c3ccccc23)NC(=O)[C@H](CNC(=N)N)NC(=O)[C@@H](CCCNC(=N)N)NC1=O` [Ex. 23, cyclo(-Ile-^DArg-Agp-Trp-^DPro-Thr-)] (cyclo([Agp]W[dP]TI[dR])): the EC50 turned out to be 90.5 ± 60.7 nM.

Turning to `CC[C@H](C)[C@@H]1NC(=O)[C@H]([C@@H](C)O)NC(=O)[C@H]2CCCN2C(=O)[C@H]([C@@H](C)CC)NC(=O)[C@H](CCCNC(=N)N)NC(=O)[C@@H](CCCNC(=N)N)NC1=O` [Ex. 1, cyclo(-Ile-^DArg-Arg-Ile-^DPro-Thr-)] (cyclo(I[dP]TI[dR]R)), the EC50 was 79.7 ± 99.7 nM. `CC[C@H](C)[C@@H]1NC(=O)[C@H]([C@@H](C)O)NC(=O)[C@H]2CCCN2C(=O)[C@H](Cc2c[nH]c3ccccc23)NC(=O)[C@H](CCCNC(=N)N)NC(=O)[C@@H](CCCCN)NC1=O` [compound 11, cyclo(-Ile-^DLys-Arg-Trp-^DPro-Thr-)] (cyclo(I[dK]RW[dP]T)): the EC50 turned out to be 86.7 ± 9.7 nM. The value for `N[C@@H]1C[C@@H]2C(=O)N3Cc4ccccc4C[C@H]3C(=O)N[C@@H](Cc3c[nH]c4ccccc34)C(=O)N[C@H](Cc3ccccc3)C(=O)N[C@@H](Cc3c[nH]c4ccccc34)C(=O)N[C@@H](CCCNC3=NCCCN3)C(=O)N2C1` [compound 80, cyclo(-Trp-^DPhe-Trp-Orn(A56)-^DPro((4R)NH2)-Tic-)] (cyclo([Tic]W[dF]W[Arg(Nω,Nω'-propylene)][dPro(cis-4-NH2)])) was 33.4 ± 0.8 nM; that for `N=C(N)NCCC[C@@H]1NC(=O)[C@@H]2Cc3ccccc3CN2C(=O)[C@H]2C[C@H](N)CN2C(=O)[C@H](CCCNC(=N)N)NC(=O)[C@H](Cc2c[nH]c3ccccc23)NC(=O)[C@@H](Cc2ccccc2)NC1=O` [compound 40, cyclo(-Arg-^DPhe-Trp-Arg-^DPro((4S)NH2)-Tic-)] (cyclo(R[dF]WR[dPro(4S-NH2)][Tic])) was 13.1 ± 4.4 nM. The value for `CC[C@H](C)[C@@H]1NC(=O)[C@H]([C@@H](C)O)NC(=O)[C@H]2CCCN2C(=O)[C@H](CCCNC(=N)N)NC(=O)[C@H](Cc2c[nH]c3ccccc23)NC(=O)[C@@H](CCCNC(=N)N)NC1=O` [Ex. 17, cyclo(-Ile-^DArg-Trp-Arg-^DPro-Thr-)] (cyclo(I[dR]WR[dP]T)) was 62.5 ± 1.8 nM.

As to `CC[C@H](C)[C@@H]1NC(=O)[C@H]([C@@H](C)O)NC(=O)[C@H]2CCCN2C(=O)[C@H](Cc2ccc(O)cc2)NC(=O)[C@H](CCCNC(=N)N)NC(=O)[C@@H](CCCNC(=N)N)NC1=O` [Ex. 2, cyclo(-Ile-^DArg-Arg-Tyr-^DPro-Thr-)] (cyclo(I[dR]RY[dP]T)), the EC50 is 83.7 ± 77.4 nM.
